According to patent US20130303539A1, “COMPOUNDS WITH TRPV4 ACTIVITY, COMPOSITIONS AND ASSOCIATED METHODS THEREOF” (priority 2012, published 2013):

Legend:
TRPV4 [1] = biological target: T1, TRPV4 (Mus musculus, UniProt Q9EPK8); experiment: Block of TRPV4 agonist-induced calcium responses in retinal ganglion cells; type: cell-based; design: endogenous in cells; host or cells: retinal Müller glial cells
Procedure: Calcium responses in retinal ganglion cells were elicited by 25 nM agonist GSK in the presence of varying concentrations of Compound 1. The half-maximal dose of inhibition was ˜300 nM.

Müller cells = experiment: Arachidonic acid-induced [Ca2+]i in Müller cells; type: cell-based; details: 1 μM, against 10 μM arachidonic acid
Procedure: This response is blocked by Compound 1 (1 μM).

retinal ganglion cells = experiment: In vivo intraocular injection of TRPV4 agonist GSK, NeuN+ RGC count; details: intraocular GSK, 48 hours
Procedure: In this experiment, GSK (100-300 nM) was injected intraocularly with a Hamilton syringe. Retinas were isolated after 48 hours, fixed and labeled with the RGC marker antibody NeuN. NeuN-immunopositive somata in the ganglion cell layer, shown in the panel on the right, were counted. The bar graph represents quantification of NeuN^+ cells in the indicated experimental groups.

[2] = tested on: MB mouse model of glaucoma; experiment: IOP in microbead (MB) mouse model of glaucoma, intraperitoneal dosing; type: in vivo
Procedure: FIG. 2 confirms that the mouse model for glaucoma causes RGC degeneration. Specifically, microbeads (MBs) were injected into the anterior chamber of a mouse eye. The MBs increase intraocular IOP above 15 mm Hg by blocking outflow of the aqueous humor within the anterior chamber of the eye. MBs were reinjected as needed to maintain a high IOP, typically one injection every two weeks. Contralateral eyes were injected intraocularly with the vehicle PBS (phosphate buffered saline) as controls. […] IOP levels were measured at least twice weekly before and after intraocular injections. After injections, mice recovered for 48 hours before IOP measurements resumed. […] Retinas were then removed and processed for immunohistochemistry (IHC). […] After rinsing with PBS, PBS containing the secondary antibody conjugated to fluorophores (Alexa 488 or Alexa 594; […] Retinas were rinsed and flat-mounted on microscope slides. Mounting medium was added and retinal wholemounts were coverslipped. The density of RGCs was imaged with a confocal microscope (Zeiss LSM 510) and quantified by counting NeuN-, CFP- and/or Tuj-1—labeled somata in the RGC layer of the retinal wholemount preparation. Injection of microbeads induces RGC degeneration after 8 weeks but not after 4 weeks. […] Mice were sedated with IP injection of Avertin with final amount calculated by weight (e.g., 0.5 ml for 21-24 g animals). […]

TRPV4 [3] = biological target: T1, TRPV4; experiment: TRPV4 agonist GSK-evoked [Ca++]i in retinal Müller glial cells; type: cell-based; design: endogenous in cells; host or cells: retinal Müller glial cells
MB model of glaucoma = experiment: IOP time course after a single eye drop in the MB model of glaucoma; type: in vivo, mouse; details: single dose eye drop
Procedure: Specifically, microbeads (MBs) were injected into the anterior chamber of a mouse eye as described in Example 2 with PBS-injected eyes used as controls. Compound 1 (10 mg/kg body weight) (or PBS vehicle) was injected intraperitoneally (IP). […] IOP was measured in mice between 10:00 AM and 1:00 PM with the TonoLab rebound tonometer (Colonial Medical Supply, Franconia, NH/Tyolat, Helsinki, Finland). Mice were sedated with IP injection of Avertin with final amount calculated by weight (e.g., 0.5 ml for 21-24 g animals). Animals were placed on a jack stand platform and the tonolab was clamped on a ring stand and centered onto the mid-cornea. During measurements animal were neither restrained nor touched. Each eye was measured twenty consecutive times, the highest and lowest values were discarded and the values were averaged.
FIG. 9 illustrates the short-term effects of a single dose of Compound 1 (eye drop) in the MB model of glaucoma. IOP was measured as described in Example 3 at the indicated time points after receiving a drop of Compound 1. Compound 1 reduced IOP beginning at 1 hour after dosing and continued through 6 hours after dosing.
FIG. 10 illustrates a time course of Compounds 1, 2, 5 and Compound 2-HCl as well as a positive control compound, timolol, with regard to inhibition of IOP. The experiment was conducted as described in Example 9. Each of the TRPV4 antagonists reduced IOP with a similar time course. Specifically, Compounds 1, 2, 5 and Compound 2-HCl reduced IOP for at least 6 hours after dosing.
FIG. 11 illustrates a time course of Compound 2-HCl activity. The experiment was conducted as described in Example 9. […] 2
FIG. 12 illustrates a comparison of the time course of Compound 2-HCl and Compound 5. The experiment was conducted as described in Example 9.

retinal ganglion cell = experiment: Pressure-induced inward currents, High-Speed Pressure Clamp, voltage-clamped retinal ganglion cell; type: cell-based; details: pressure steps from 10 mm Hg to 50 mm Hg
Procedure: The cell was voltage clamped and stimulated with the High-Speed Pressure Clamp method, as detailed by Besch et al (Pflugers Arch. 2002 October; 445(1):161-6). This method consists of a specialized headstage coupled to a piezo element in the pressure/vacuum control valve. By balancing the access of pressure to the patch pipette, the device generates rapid and reproducible pressure steps of >±200 mm Hg. Channel activity is recorded in the cell-attached mode or the membrane is “zapped” into the outside-out configuration.

T1 sequence (Q9EPK8 whole entry): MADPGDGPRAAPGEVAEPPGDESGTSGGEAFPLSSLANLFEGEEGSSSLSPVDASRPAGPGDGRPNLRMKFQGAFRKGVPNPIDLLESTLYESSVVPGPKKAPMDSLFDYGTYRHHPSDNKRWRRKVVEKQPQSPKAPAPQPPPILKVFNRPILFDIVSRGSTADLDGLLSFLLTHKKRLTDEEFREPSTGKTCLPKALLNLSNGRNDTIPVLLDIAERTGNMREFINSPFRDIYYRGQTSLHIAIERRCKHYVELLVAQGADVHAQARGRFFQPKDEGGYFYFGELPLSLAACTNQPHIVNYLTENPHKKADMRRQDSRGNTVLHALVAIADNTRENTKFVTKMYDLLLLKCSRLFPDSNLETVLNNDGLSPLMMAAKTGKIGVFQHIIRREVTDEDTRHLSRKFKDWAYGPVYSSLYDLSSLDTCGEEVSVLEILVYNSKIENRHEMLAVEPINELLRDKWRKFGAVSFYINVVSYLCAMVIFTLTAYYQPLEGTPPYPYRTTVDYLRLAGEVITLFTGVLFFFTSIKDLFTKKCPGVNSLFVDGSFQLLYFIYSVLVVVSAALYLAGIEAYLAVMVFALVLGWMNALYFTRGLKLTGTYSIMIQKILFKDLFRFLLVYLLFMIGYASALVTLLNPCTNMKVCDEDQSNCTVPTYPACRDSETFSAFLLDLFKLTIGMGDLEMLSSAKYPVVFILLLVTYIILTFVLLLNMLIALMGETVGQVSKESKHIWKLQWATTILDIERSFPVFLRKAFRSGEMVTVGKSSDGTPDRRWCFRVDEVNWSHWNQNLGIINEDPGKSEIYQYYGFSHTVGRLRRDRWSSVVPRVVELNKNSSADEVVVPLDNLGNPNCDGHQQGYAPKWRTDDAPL

## Cc1c(C(=O)Nc2cccc(C(F)(F)F)c2)cc(-c2ccccc2)n1CCCN1CCOCC1 [Compound 1, N-(3-(trifluoromethyl)phenyl)-2-methyl-1-(3-morpholinopropyl)-5-phenyl-1H-pyrrole-3-carboxamide]
TRPV4 [1]
  IC50: ~0.3 µM
Müller cells
  block of arachidonic acid-induced [Ca2+]i increase: blocked
Retinal ganglion cells
  block of GSK-induced RGC degeneration: blocked
[2]; 10 mg/kg body weight intraperitoneally, MB-injected eyes vs PBS-injected eyes
  IOP: blocked the increase in IOP to the level observed in control mice
[2]; daily IP injections, cumulative data from 3 independent experiments
  average IOP, cumulative effectiveness: blocks MB-induced increases in IOP
TRPV4 [3]
  block of GSK-evoked [Ca++]i increase: this effect is blocked
  reversibility of the effect on glial calcium levels: reversible
  washout by superfusion with control saline: 10 min
MB model of glaucoma
  onset of IOP reduction after dosing: 1 h
Retinal ganglion cell
  pressure-induced inward currents: reversibly antagonized
